According to PubChem BioAssay (NCI):
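Where inhibition never reached the appropriate level, the endpoint shown equals the highest concentration tested. Otherwise, values were interpolated linearly from a five-concentration, 48-hour dose response in 96-well plates. At the GI50, growth is halved. The concentration for full growth arrest is given as TGI.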

What was measured:
Experiment in all cases: NCI-60 cell line screen, 48 h
NCI-H226 lung = tested on: NCI-H226 lung
HOP-62 NSCLC = tested on: HOP-62 NSCLC
HOP-92 NSCLC = tested on: HOP-92 NSCLC
DU-145 prostate = tested on: DU-145 prostate
T-47D breast = tested on: T-47D breast
OVCAR-5 ovarian = tested on: OVCAR-5 ovarian
SK-OV-3 ovarian = tested on: SK-OV-3 ovarian
K-562 leukemia = tested on: K-562 leukemia
HT29 colon = tested on: HT29 colon
ACHN renal = tested on: ACHN renal

`Oc1c(CN2CCOCC2)cc(COCc2ccccc2)c2cccnc12` showed a GI50 (NCI-H226 lung) of 4.65 µM, a TGI (NCI-H226 lung) of 36.8 µM and a GI50 (HOP-62 NSCLC) of 1.48 µM. It also gave a TGI (HOP-62 NSCLC) of over 100 µM, a GI50 (HOP-92 NSCLC) of 41.6 µM and a TGI (HOP-92 NSCLC) of over 100 µM. For the same molecule, the GI50 (DU-145 prostate) was 4.73 µM, the TGI (DU-145 prostate) was over 100 µM and the GI50 (T-47D breast) was 2.63 µM. The TGI (T-47D breast) was over 100 µM, the GI50 (OVCAR-5 ovarian) was 5.08 µM and the TGI (OVCAR-5 ovarian) was over 100 µM. It also gave a GI50 (SK-OV-3 ovarian) of 3 µM, a TGI (SK-OV-3 ovarian) of 22.2 µM and a GI50 (K-562 leukemia) of 2.74 µM. The TGI (K-562 leukemia) was over 100 µM, the GI50 (HT29 colon) was 19.8 µM and the TGI (HT29 colon) was 65.4 µM. The GI50 (ACHN renal) was 0.571 µM and the TGI (ACHN renal) was over 100 µM.
`Cc1cc(S(=O)(=O)Nc2nc3cc(Cl)ccc3o2)c(SCc2ccccc2)cc1Cl` was tested, and the GI50 (NCI-H226 lung) was 38.5 µM, the TGI (NCI-H226 lung) was over 100 µM and the GI50 (HOP-62 NSCLC) was 21.9 µM. It also gave a TGI (HOP-62 NSCLC) of 40 µM, a GI50 (HOP-92 NSCLC) of 18.7 µM and a TGI (HOP-92 NSCLC) of 39.1 µM. The GI50 (DU-145 prostate) was 22.4 µM, the TGI (DU-145 prostate) was 45.9 µM and the GI50 (T-47D breast) was 17.8 µM. It also gave a TGI (T-47D breast) of 39.7 µM, a GI50 (OVCAR-5 ovarian) of 22.7 µM and a TGI (OVCAR-5 ovarian) of 43 µM. For the same molecule, the GI50 (K-562 leukemia) was 46.2 µM, the TGI (K-562 leukemia) was over 100 µM and the GI50 (HT29 colon) was 39.9 µM. For the same molecule, the TGI (HT29 colon) was over 100 µM, the GI50 (ACHN renal) was 18.5 µM and the TGI (ACHN renal) was 34.9 µM.
With `O=C(CCl)Nc1cc(O)c2c(c1)C(=O)c1cccc(O)c1C2=O` the GI50 (NCI-H226 lung) was 1.31 µM, the TGI (NCI-H226 lung) was 4.93 µM and the GI50 (HOP-62 NSCLC) was 1.71 µM. The TGI (HOP-62 NSCLC) was 3.38 µM, the GI50 (HOP-92 NSCLC) was 1.79 µM and the TGI (HOP-92 NSCLC) was 3.63 µM. It also gave a GI50 (DU-145 prostate) of 1.56 µM, a TGI (DU-145 prostate) of 2.94 µM and a GI50 (T-47D breast) of 1.19 µM. It also gave a TGI (T-47D breast) of 3.61 µM, a GI50 (OVCAR-5 ovarian) of 2.32 µM and a TGI (OVCAR-5 ovarian) of 5.19 µM. It also gave a GI50 (SK-OV-3 ovarian) of 2.61 µM, a TGI (SK-OV-3 ovarian) of 18.1 µM and a GI50 (K-562 leukemia) of 0.353 µM. It also gave a TGI (K-562 leukemia) of 4.22 µM, a GI50 (HT29 colon) of 1.99 µM and a TGI (HT29 colon) of 3.89 µM. The GI50 (ACHN renal) was 1.55 µM and the TGI (ACHN renal) was 2.98 µM.
`CC(C)(C)C(=O)OCc1nc2cc3c(cc2c(=O)[nH]1)CCC3=O` gave a GI50 (NCI-H226 lung) of over 100 µM, a TGI (NCI-H226 lung) of over 100 µM and a GI50 (HOP-62 NSCLC) of over 100 µM. For the same molecule, the TGI (HOP-62 NSCLC) was over 100 µM, the GI50 (HOP-92 NSCLC) was over 100 µM and the TGI (HOP-92 NSCLC) was over 100 µM. It also gave a GI50 (DU-145 prostate) of over 100 µM, a TGI (DU-145 prostate) of over 100 µM and a GI50 (T-47D breast) of over 100 µM. For the same molecule, the TGI (T-47D breast) was over 100 µM, the GI50 (OVCAR-5 ovarian) was over 100 µM and the TGI (OVCAR-5 ovarian) was over 100 µM. For the same molecule, the GI50 (SK-OV-3 ovarian) was over 100 µM, the TGI (SK-OV-3 ovarian) was over 100 µM and the GI50 (K-562 leukemia) was over 100 µM. For the same molecule, the TGI (K-562 leukemia) was over 100 µM, the GI50 (HT29 colon) was over 100 µM and the TGI (HT29 colon) was over 100 µM. The GI50 (ACHN renal) was over 100 µM and the TGI (ACHN renal) was over 100 µM.
`O=C(Nc1cccc(C(F)(F)F)c1)c1cc(Br)cc(Br)c1O` showed a TGI (NCI-H226 lung) of 9.42 µM, a TGI (HOP-62 NSCLC) of over 10 µM and a TGI (HOP-92 NSCLC) of 5.82 µM. It also gave a TGI (DU-145 prostate) of over 10 µM, a TGI (T-47D breast) of 9.69 µM and a TGI (OVCAR-5 ovarian) of over 10 µM. For the same molecule, the TGI (SK-OV-3 ovarian) was 9.38 µM, the TGI (K-562 leukemia) was 7.18 µM and the TGI (HT29 colon) was over 10 µM. For the same molecule, the TGI (ACHN renal) was 9.29 µM.
`O=[N+]([O-])c1cc(F)c2cccnc2c1O` was tested, and the GI50 (NCI-H226 lung) was 30.5 µM, the TGI (NCI-H226 lung) was over 100 µM and the GI50 (HOP-62 NSCLC) was 13.6 µM. It also gave a TGI (HOP-62 NSCLC) of over 100 µM, a GI50 (HOP-92 NSCLC) of 2.84 µM and a TGI (HOP-92 NSCLC) of 9.01 µM. For the same molecule, the GI50 (DU-145 prostate) was 6.28 µM, the TGI (DU-145 prostate) was over 100 µM and the GI50 (T-47D breast) was 21.2 µM. For the same molecule, the TGI (T-47D breast) was over 100 µM, the GI50 (OVCAR-5 ovarian) was 35.8 µM and the TGI (OVCAR-5 ovarian) was over 100 µM. For the same molecule, the GI50 (SK-OV-3 ovarian) was 26.3 µM, the TGI (SK-OV-3 ovarian) was over 100 µM and the GI50 (HT29 colon) was 4.55 µM. For the same molecule, the TGI (HT29 colon) was 20.7 µM, the GI50 (ACHN renal) was 6.06 µM and the TGI (ACHN renal) was 79.7 µM.
Work on `O=S(=O)(O)ONC1=NCCN1` yielded a GI50 (NCI-H226 lung) of over 100 µM, a TGI (NCI-H226 lung) of over 100 µM and a GI50 (HOP-62 NSCLC) of over 100 µM. It also gave a TGI (HOP-62 NSCLC) of over 100 µM, a GI50 (HOP-92 NSCLC) of over 100 µM and a TGI (HOP-92 NSCLC) of over 100 µM. The GI50 (DU-145 prostate) was over 100 µM, the TGI (DU-145 prostate) was over 100 µM and the GI50 (T-47D breast) was 38.8 µM. For the same molecule, the TGI (T-47D breast) was over 100 µM, the GI50 (OVCAR-5 ovarian) was over 100 µM and the TGI (OVCAR-5 ovarian) was over 100 µM. The GI50 (SK-OV-3 ovarian) was over 100 µM, the TGI (SK-OV-3 ovarian) was over 100 µM and the GI50 (K-562 leukemia) was over 100 µM. The TGI (K-562 leukemia) was over 100 µM, the GI50 (HT29 colon) was 58.1 µM and the TGI (HT29 colon) was over 100 µM. The GI50 (ACHN renal) was over 100 µM and the TGI (ACHN renal) was over 100 µM.
In the case of `O=C1c2ccn(CCCCN3CCC(O)CC3)c2C(=O)c2c1c(O)c1ccccc1c2O`, the GI50 (NCI-H226 lung) is reported as 23.7 µM, the TGI (NCI-H226 lung) is reported as 60.2 µM and the GI50 (HOP-62 NSCLC) is reported as 16.3 µM. It also gave a TGI (HOP-62 NSCLC) of 34.9 µM, a GI50 (HOP-92 NSCLC) of 8.95 µM and a TGI (HOP-92 NSCLC) of 41.1 µM. The GI50 (DU-145 prostate) was 7.98 µM, the GI50 (T-47D breast) was over 46 µM and the TGI (T-47D breast) was over 67.6 µM. The GI50 (OVCAR-5 ovarian) was 33.4 µM, the TGI (OVCAR-5 ovarian) was over 66.8 µM and the GI50 (SK-OV-3 ovarian) was 41.3 µM. The TGI (SK-OV-3 ovarian) was over 74.6 µM, the GI50 (K-562 leukemia) was 1.77 µM and the TGI (K-562 leukemia) was over 100 µM. The GI50 (HT29 colon) was 46.9 µM, the TGI (HT29 colon) was over 100 µM and the GI50 (ACHN renal) was 15.2 µM. It also gave a TGI (ACHN renal) of 32.8 µM.
With `CCOC(=O)/C(C#N)=C/Nc1ccc(-c2nc3ccccc3[nH]2)cc1` the GI50 (NCI-H226 lung) was over 100 µM, the TGI (NCI-H226 lung) was over 100 µM and the GI50 (HOP-62 NSCLC) was 31.1 µM. The TGI (HOP-62 NSCLC) was 74.7 µM, the GI50 (HOP-92 NSCLC) was 42.1 µM and the TGI (HOP-92 NSCLC) was over 100 µM. For the same molecule, the GI50 (DU-145 prostate) was 66.6 µM, the TGI (DU-145 prostate) was over 100 µM and the GI50 (T-47D breast) was 33.9 µM. The TGI (T-47D breast) was over 100 µM, the GI50 (OVCAR-5 ovarian) was 50.8 µM and the TGI (OVCAR-5 ovarian) was over 100 µM. It also gave a GI50 (SK-OV-3 ovarian) of 25.6 µM, a TGI (SK-OV-3 ovarian) of 99.3 µM and a GI50 (K-562 leukemia) of 25.1 µM. It also gave a TGI (K-562 leukemia) of 98.6 µM, a GI50 (ACHN renal) of 25.4 µM and a TGI (ACHN renal) of 78 µM.
`CCCCOc1ccc(/C=N/Nc2cc(C)nc3ccc(Cl)cc23)cc1` gave a GI50 (NCI-H226 lung) of 1.63 µM, a TGI (NCI-H226 lung) of 3.41 µM and a GI50 (HOP-62 NSCLC) of 1.62 µM. It also gave a TGI (HOP-62 NSCLC) of 3.28 µM, a GI50 (HOP-92 NSCLC) of 1.43 µM and a TGI (HOP-92 NSCLC) of 2.99 µM. For the same molecule, the GI50 (DU-145 prostate) was 1.82 µM, the TGI (DU-145 prostate) was 3.71 µM and the GI50 (T-47D breast) was 1.73 µM. It also gave a TGI (T-47D breast) of 3.77 µM, a GI50 (OVCAR-5 ovarian) of 1.82 µM and a TGI (OVCAR-5 ovarian) of 3.24 µM. For the same molecule, the GI50 (SK-OV-3 ovarian) was 1.8 µM, the TGI (SK-OV-3 ovarian) was 3.27 µM and the GI50 (HT29 colon) was 1.24 µM. For the same molecule, the TGI (HT29 colon) was 2.61 µM, the GI50 (ACHN renal) was 1.73 µM and the TGI (ACHN renal) was 3.1 µM.
Work on `Cc1ccc2c(c1)C(=O)c1c-2n(CCCN=[N+]=[N-])c(=O)c2cc([N+](=O)[O-])ccc12` yielded a GI50 (NCI-H226 lung) of over 100 µM, a TGI (NCI-H226 lung) of over 100 µM and a GI50 (HOP-62 NSCLC) of 71.7 µM. It also gave a TGI (HOP-62 NSCLC) of over 100 µM, a GI50 (HOP-92 NSCLC) of 30.2 µM and a TGI (HOP-92 NSCLC) of over 100 µM. For the same molecule, the GI50 (DU-145 prostate) was over 100 µM, the TGI (DU-145 prostate) was over 100 µM and the GI50 (T-47D breast) was 20.7 µM. It also gave a TGI (T-47D breast) of 93.6 µM, a GI50 (OVCAR-5 ovarian) of over 100 µM and a TGI (OVCAR-5 ovarian) of over 100 µM. It also gave a GI50 (K-562 leukemia) of 39.4 µM, a TGI (K-562 leukemia) of over 100 µM and a GI50 (HT29 colon) of 14.7 µM. For the same molecule, the TGI (HT29 colon) was over 100 µM, the GI50 (ACHN renal) was 30.8 µM and the TGI (ACHN renal) was over 100 µM.
